pIC50: −log10 of the molar value. Like-named read-outs stand apart in the source and are kept apart here.
Experiments:
[1] = target: biotinylated human IL-17A / AF647-labeled human IL-17RA (Homo sapiens, UniProt Q16552); experiment: Human IL-17A×IL-17RA TR-FRET assay; type: binding; conditions: biotinylated human IL-17A 5 nM, AF647-labeled human IL-17RA 30 nM
Summary of the method: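 Compounds tested in duplicate at each concentration; neutral controls contain all components with DMSO in place of compound.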

[2] = target: recombinant human IL-17AA (Homo sapiens, UniProt Q16552); experiment: IL-6 release from NHDF cells, IL-17AA plus TNF-α stimulation; type: cell-based; conditions: IL-17AA 30 pM plus TNF-α 6 pM, 24 hours, IL-6 by ELISA
recombinant human IL-17AA, sequence (Q16552 24-155): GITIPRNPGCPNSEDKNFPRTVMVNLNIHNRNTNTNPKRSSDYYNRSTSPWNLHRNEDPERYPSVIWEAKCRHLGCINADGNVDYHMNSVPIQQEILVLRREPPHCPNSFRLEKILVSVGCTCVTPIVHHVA
Protocol: IL-6 Release from NHDF Cells (Normal Human Dermal Fibroblasts)
NHDF cells isolated from normal adult mesoderm, connective tissues were cultured in fibroblast growth medium containing 2% supplement. […] The cells were allowed to adhere overnight before they were incubated with the compound/cytokine cocktail.
Diluted compounds were pre-incubated with recombinant human IL-17AA or IL-17AF plus human TNF-α for 30 minutes at room temperature on a shaker. […] The cells were incubated with the compound/cytokines cocktail for 24 hours at 37° C. (5% CO2). […] The final DMSO or plasma concentrations were 0.1% or 20%, respectively. All compound incubations were done in duplicate. The supernatants were collected to quantify IL-6 by ELISA according to the manufacturers instructions. The optical density was measured at 450 nm by an EnVision Multilabel Plate Reader (Perkin Elmer). The IL-6 levels produced after TNF-α stimulation were subtracted from the IL-6 produced after IL-17/TNF-α co-stimulation. These IL-17-specific IL-6 concentrations were used for […] value calculation.

[3] = TR-FRET, read-out: IL17AA FRET/ IL17Rawt IC50
[4] = NHDF cells, read-out: IL17AA + TNF IC50 IL-6
[5] = IL17AA FRET/ IL17Rawt IC50, TR-FRET
[6] = IL17AA + TNF IC50 IL-6, NHDF cells

biotinylated human IL-17A / AF647-labeled human IL-17RA, sequence (Q16552 24-155): as above

Row | Structure (SMILES) | pIC50 [1, 3] | pIC50 [2, 4] | pIC50 [1, 5] | pIC50 [2, 6]
1 | Cc1cc[n+]([O-])c(C)c1-c1ccc(NC(=O)C(NC(=O)c2conc2C)C2CCC(C(F)(F)F)CC2)cc1 [Example 23, 2,4-dimethyl-3-(4-((S)-2-(3-methylisoxazole-4-carboxamido)-2-((1r,4S)-4-(trifluoromethyl)cyclohexyl)acetamido)phenyl)pyridine 1-oxide] | 7.22 | 8.22 |  | 
2 | Cc1cc[n+]([O-])c(C)c1-c1ccc(NC(=O)C(NC(=O)c2ccnn2C)C2CCC(C(F)(F)F)CC2)cc1 [Example 24, 2,4-dimethyl-3-(4-((S)-2-(1-methyl-1H-pyrazole-5-carboxamido)-2-((1r,4S)-4-(trifluoromethyl)cyclohexyl)acetamido)phenyl)pyridine 1-oxide] |  |  | 6.94 | 7.32
3 | COCc1nocc1C(=O)NC(C(=O)Nc1ccc(-c2c(C)cc[n+]([O-])c2C)cc1)C1CCC(C(F)(F)F)CC1 [Example 25, 3-(4-((S)-2-(3-(methoxymethyl)isoxazole-4-carboxamido)-2-((1r,4S)-4-(trifluoromethyl)cyclohexyl)acetamido)phenyl)-2,4-dimethylpyridine 1-oxide] | 6.75 | 7.16 |  | 
4 | CCc1nocc1C(=O)N[C@H](C(=O)Nc1ccc(-c2c(C(F)(F)F)cc[n+]([O-])c2C)cc1)[C@H]1CCCC(F)(F)C1 [Example 26, 3-(4-((S)-2-((S)-3,3-difluorocyclohexyl)-2-(3-ethylisoxazole-4-carboxamido)acetamido)phenyl)-2-methyl-4-(trifluoromethyl)pyridine 1-oxide] | 7.36 | 7.85 |  | 
5 | Cc1c(-c2ccc(NC(=O)[C@@H](NC(=O)c3ccnn3C)C3CCC(F)(F)CC3)cc2)c(C(F)(F)F)cc[n+]1[O-] [Example 27, (S)-3-(4-(2-(4,4-difluorocyclohexyl)-2-(1-methyl-1H-pyrazole-5-carboxamido)acetamido)phenyl)-2-methyl-4-(trifluoromethyl)pyridine 1-oxide] | 6.92 | 6.94 |  | 
6 | Cc1cc[n+]([O-])c(C)c1-c1ccc(NC(=O)[C@@H](NC(=O)c2conc2C)[C@@H]2CC=C(F)CC2)cc1 [Example 29, 3-(4-((S)-2-((S)-4-fluorocyclohex-3-en-1-yl)-2-(3-methylisoxazole-4-carboxamido)acetamido)phenyl)-2,4-dimethylpyridine 1-oxide] | 7.07 | 7.33 |  | 
7 | CCn1nccc1C(=O)N[C@H](C(=O)Nc1ccc(-c2c(C)cc[n+]([O-])c2C)cc1)C1CCCC1 [Example 35, (S)-3-(4-(2-cyclopentyl-2-(1-ethyl-1H-pyrazole-5-carboxamido)acetamido)phenyl)-2,4-dimethylpyridine 1-oxide] | 6.51 | 6.67 |  | 
8 | Cc1cc[n+]([O-])c(C)c1-c1ccc(NC(=O)[C@@H](NC(=O)c2ccnn2C)C2CCCC2)cc1 [Example 36, (S)-3-(4-(2-cyclopentyl-2-(1-methyl-1H-pyrazole-5-carboxamido)acetamido)phenyl)-2,4-dimethylpyridine 1-oxide] | 5.85 | 7.42 |  | 
9 | Cc1cc[n+]([O-])c(C)c1-c1ccc(NC(=O)[C@H](Cc2ccccc2Cl)NC(=O)c2conc2C)cc1 [Example 38, (S)-3-(4-(3-(2-chlorophenyl)-2-(3-methylisoxazole-4-carboxamido)propanamido)phenyl)-2,4-dimethylpyridine 1-oxide] | 7.77 | 6.88 |  | 
10 | Cc1cc[n+]([O-])c(C)c1-c1ccc(NC(=O)[C@@H](NC(=O)c2ccnn2C)C2CCCCC2)cc1 [Example 39, (S)-3-(4-(2-cyclohexyl-2-(1-methyl-1H-pyrazole-5-carboxamido)acetamido)phenyl)-2,4-dimethylpyridine 1-oxide] | 6.72 | 7.70 |  | 
11 | Cc1cc[n+]([O-])c(C)c1-c1ccc(NC(=O)[C@@H](NC(=O)c2ccnn2C(C)C)C2CCCCCC2)cc1 [Example 40, (S)-3-(4-(2-cycloheptyl-2-(1-isopropyl-1H-pyrazole-5-carboxamido)acetamido)phenyl)-2,4-dimethylpyridine 1-oxide] | 7.60 | 8.70 |  | 
12 | Cc1cc[n+]([O-])c(C)c1-c1ccc(NC(=O)[C@@H](NC(=O)c2ccnn2C)C2CCCCCC2)cc1 [Example 41, (S)-3-(4-(2-cycloheptyl-2-(1-methyl-1H-pyrazole-5-carboxamido)acetamido)phenyl)-2,4-dimethylpyridine 1-oxide] | 7.62 | 8.05 |  | 
13 | Cc1cc[n+]([O-])c(C)c1-c1ccc(NC(=O)[C@@H](NC(=O)c2ccnn2C2CC2)C2CCCCCC2)cc1 [Example 42, (S)-3-(4-(2-cycloheptyl-2-(1-cyclopropyl-1H-pyrazole-5-carboxamido)acetamido)phenyl)-2,4-dimethylpyridine 1-oxide] | 7.59 | 7.92 |  | 
14 | Cc1cc[n+]([O-])c(C)c1-c1ccc(NC(=O)[C@@H](NC(=O)c2conc2C)C2CCCCCC2)nc1 [Example 44, (S)-6′-(2-cycloheptyl-2-(3-methylisoxazole-4-carboxamido)acetamido)-2,4-dimethyl-[3,3′-bipyridine] 1-oxide] | 7.47 | 7.74 |  | 
15 | Cc1c(-c2ccc(NC(=O)[C@@H](NC(=O)c3ccnn3C)C3CCCCC3)cc2)c(Cl)cc[n+]1[O-] [Example 45, (S)-4-chloro-3-(4-(2-cyclohexyl-2-(1-methyl-1H-pyrazole-5-carboxamido)acetamid)phenyl)-2-methylpyridine 1-oxide] |  |  | 7.59 | 7.59
16 | Cc1c(-c2ccc(NC(=O)C(NC(=O)c3ccnn3C)C3CCC(C)CC3)cc2)c(Cl)cc[n+]1[O-] [Example 46, 4-chloro-2-methyl-3-(4-((S)-2-(1-methyl-1H-pyrazole-5-carboxamido)-2-((1r,4S)-4-methylcyclohexyl)acetamido)phenyl)pyridine 1-oxide] | 7.74 | 8.40 |  | 
17 | Cc1c(-c2ccc(NC(=O)[C@@H](NC(=O)c3ccnn3C)C3CCCCCC3)cc2)c(Cl)cc[n+]1[O-] [Example 47, (S)-4-chloro-3-(4-(2-cycloheptyl-2-(1-methyl-1H-pyrazole-5-carboxamido)acetamido)phenyl)-2-methylpyridine 1-oxide] | 7.77 | 8.15 |  | 

Continued, in another order:

Row | pIC50 [1, 3] | pIC50 [2, 4] | Structure (SMILES) | pIC50 [1, 5] | pIC50 [2, 6]
18 | 7.70 | 7.66 | CCc1nocc1C(=O)N[C@H](C(=O)Nc1ccc(-c2c(C)cc[n+]([O-])c2C)cc1)[C@@H]1CC=C(F)CC1 [Example 28, 3-(4-((S)-2-(3-ethylisoxazole-4-carboxamido)-2-((S)-4-fluorocyclohex-3-en-1-yl)acetamido)phenyl)-2,4-dimethylpyridine 1-oxide] |  | 
19 | 7.34 | 7.92 | CCc1nocc1C(=O)N[C@H](C(=O)Nc1ccc(-c2c(C)cc[n+]([O-])c2C)cc1)[C@H]1CCCC(F)(F)C1 [Example 30, 3-(4-((S)-2-((S)-3,3-difluorocyclohexyl)-2-(3-ethylisoxazole-4-carboxamido)acetamido)phenyl)-2,4-dimethylpyridine 1-oxide] |  | 
20 | 6.94 | 7.82 | CCc1nocc1C(=O)N[C@H](C(=O)Nc1ccc(-c2c(C)cc[n+]([O-])c2C)cc1)C1CCC(F)(F)CC1 [Example 31, (S)-3-(4-(2-(4,4-difluorocyclohexyl)-2-(3-ethylisoxazole-4-carboxamido)acetamido)phenyl)-2,4-dimethylpyridine 1-oxide] |  | 
21 | 6.54 | 7.30 | Cc1cc[n+]([O-])c(C)c1-c1ccc(NC(=O)[C@@H](NC(=O)c2ccnn2C)C2CCC(F)(F)CC2)cc1 [Example 32, (S)-3-(4-(2-(4,4-difluorocyclohexyl)-2-(1-methyl-1H-pyrazole-5-carboxamido)acetamido)phenyl)-2,4-dimethylpyridine 1-oxide] |  | 
22 | 5.94 | 7.06 | COCc1nocc1C(=O)N[C@H](C(=O)Nc1ccc(-c2c(C)cc[n+]([O-])c2C)cc1)C1CCC(F)(F)CC1 [Example 33, (S)-3-(4-(2-(4,4-difluorocyclohexyl)-2-(3-(methoxymethyl)isoxazole-4-carboxamido)acetamido)phenyl)-2,4-dimethylpyridine 1-oxide] |  | 
23 | 7.09 | 7.00 | CCc1nocc1C(=O)N[C@H](C(=O)Nc1ccc(-c2c(C)cc[n+]([O-])c2C)cc1)C1CCCC1 [Example 34, (S)-3-(4-(2-cyclopentyl-2-(3-ethylisoxazole-4-carboxamido)acetamido)phenyl)-2,4-dimethylpyridine 1-oxide] |  | 
24 | 6.40 | 7.22 | Cc1cc[n+]([O-])c(C)c1-c1ccc(NC(=O)[C@@H](NC(=O)c2conc2C)C2CCCC2)cc1 [Example 37, (S)-3-(4-(2-cyclopentyl-2-(3-methylisoxazole-4-carboxamido)acetamido)phenyl)-2,4-dimethylpyridine 1-oxide] |  | 

Reference: patent publication US12600728B2, “Interleukin-17 inhibitors” (priority 2020, dated 2026)
